65 compounds from PubChem BioAssay AID792 (PCMD, 2007) can be followed below.

SMILES strings stand for the structures. Inconclusive results are not listed. Active and inactive are the calls of the source. How the calls were made is not given here. Bounds are passed on as bounds.

For the assay, the target named is S. cerevisiae eIF2B mutant, luciferase reporter luminescence. In words: eIF2B reporter inhibitors in yeast strains, dose response, S. cerevisiae, mutant, wild-type, luminescence, growth (AID 792).
The mark [1] stands for this setting: measured here: mutant yeast growth.
Where [2] appears, read: S. cerevisiae wild-type, luminescence.

What is called IC50 is the concentration needed to halve the response being measured. As to `Cc1nnc(NC2CCCCC2)[nH]c1=O`, the IC50 was > 100 µM (inactive). Moreover, under setting [1], the IC50 was greater than 100 µM.
The like results for `CC(=O)NC(CCS(C)(=O)=O)C(=O)Nc1ccccc1Cl` (stereo not given) were, in that order, > 100 µM (inactive) and greater than 100 µM.
The like results for `Cn1c(=O)[nH]c(=O)c2c1nc(SCC(O)CO)n2Cc1ccccc1Cl` (stereo not given) were, in that order, > 100 µM (inactive) and greater than 100 µM.
Turning to `COCCn1c(-c2ccccc2)cc(C(=O)O)c1C`, the IC50 was > 100 µM (inactive). The same compound displayed an IC50 under setting [1] greater than 100 µM.
The like results for `COCCN1CN(S(=O)(=O)c2ccc(Cl)cc2)c2nc3ccccc3nc21` were, in that order, > 100 µM (inactive) and greater than 100 µM.
Consider `CS(=O)(=O)c1ccc2nc(NC(=O)C3C4C=CC(C4)C3C(=O)O)sc2c1` (stereo not given), for which the IC50 is > 100 µM (inactive). For the same compound, the IC50 under setting [1] was greater than 100 µM.
In the case of `CCN1CCN(c2cc(C(C)(C)C)nc3c(-c4ccccc4)c(C)nn23)CC1`, the IC50 result is “inactive”. For the same compound, the IC50 under setting [1] worked out at 15.8 µM.
For the compound `CCC(C)(C(=O)NC1CCCCC1)N(Cc1ccco1)C(=O)c1ccc2c(c1)OCO2` (stereo not given), the IC50 was > 100 µM (inactive). The compound further gave an IC50 under setting [1] greater than 100 µM.
The like results for `CCOC(=O)c1nn(-c2cccc(Cl)c2)c2nc(CC(C)C)c(C#N)c(=O)n12` were, in that order, > 100 µM (inactive) and greater than 100 µM.
The like results for `O=C(Nc1ccc(Sc2ccc(Br)cc2)cc1)c1ccco1` were, in that order, > 100 µM (inactive) and greater than 100 µM.
The like results for `Nc1ccc2oc(CCc3ccccc3)nc2c1` were, in that order, > 100 µM (inactive) and greater than 100 µM.
With `CCc1cc(=O)oc2cc3oc(C)c(C)c3cc12`, the IC50 is > 100 µM (inactive). The IC50 under setting [1] was greater than 100 µM.
As for `COc1ccc(OC)c(N/C(C)=C/C(=O)c2ccc(C)o2)c1`, the IC50 was > 100 µM (inactive). This compound had an IC50 under setting [2] greater than 100 µM. Besides, under setting [1], the IC50 was greater than 100 µM.
Regarding `c1ccc(-c2cc(-c3nn4c(-c5ccco5)nnc4s3)c3ccccc3n2)cc1`, the IC50 is > 100 µM (inactive). Further, under setting [1], the IC50 was greater than 100 µM.
Regarding `Cc1cc(/C([O-])=C(/C(=S)Nc2ccc(F)cc2)[n+]2ccccc2)c(C)n1-c1ccc(F)cc1`, the IC50 is > 100 µM (inactive). Under setting [1], this compound came in with an IC50 greater than 100 µM.
`CSc1ccccc1NC(=O)c1cc(-c2cccs2)on1`: the IC50 is > 100 µM (inactive). The IC50 under setting [1] was greater than 100 µM.
As to `COc1ccc(Cl)cc1-n1c(N)c(C(N)=O)sc1=S`, the IC50 is > 100 µM (inactive). Moreover, the IC50 under setting [1] is greater than 100 µM.
For the compound `COc1cccc(Oc2cn[nH]c2-c2ccc(OC)cc2O)c1`, the IC50 result was “inactive”. The compound also yielded an IC50 under setting [2] of 44.1 µM. For the same compound, the IC50 under setting [1] is 40.8 µM.
As for `O=C(NCCc1ccccn1)c1cccc(S(=O)(=O)N2CCCCCC2)c1`, the IC50 is > 100 µM (inactive). Further, the IC50 under setting [1] is greater than 100 µM.
The like results for `Cc1csc(NC(=O)NC2(C(F)(F)F)Oc3ccccc3O2)n1` were, in that order, > 100 µM (inactive) and greater than 100 µM.
The like results for `O=c1c2ccccc2nc(CN2CCOCC2)n1-c1ccccc1F` were, in that order, > 100 µM (inactive) and greater than 100 µM.
The like results for `COc1ccc(OC)c(NC(=O)CNC(=O)Cn2cnc3ccccc3c2=O)c1` were, in that order, > 100 µM (inactive) and greater than 100 µM.
`COC(=O)CSc1nnc2n(-c3ccc(OC)cc3)c(=O)c3c4c(sc3n12)CCCCC4`: the IC50 was > 100 µM (inactive). Under setting [1], this compound came in with an IC50 of 87.1 µM.
`Cc1cc2ncc(C(=O)Nc3ccccc3)c(C)n2n1`: the IC50 was > 100 µM (inactive). Further, under setting [1], the IC50 is greater than 100 µM.
The like results for `CCCn1nnc(NC(=O)C(c2ccccc2)c2ccccc2)n1` were, in that order, > 100 µM (inactive) and greater than 100 µM.
The like results for `C=CCc1cccc(CNc2nc3ccccc3n2C(C)C)c1O` were, in that order, > 100 µM (inactive) and greater than 100 µM.
The like results for `COc1cccc(-c2nc(N3CCCCC3C)c3ccccc3n2)c1O` (stereo not given) were, in that order, > 100 µM (inactive) and greater than 100 µM.
As to `CCOC(=O)c1oc2cc(O)ccc2c(=O)c1-c1csc(C)n1`, the IC50 is > 100 µM (inactive). Under setting [1], this compound came in with an IC50 greater than 100 µM.
The like results for `COc1cc(OC)nc(NC(=O)CCl)n1` were, in that order, > 100 µM (inactive) and greater than 100 µM.
The like results for `Cc1cccc(N2C(=O)c3cccnc3C2=O)c1` were, in that order, > 100 µM (inactive) and greater than 100 µM.
The like results for `Cc1cc(C)n(-c2cc(C(C)(C)C)nc3c(-c4ccc(Cl)cc4)cnn23)n1` were, in that order, > 100 µM (inactive) and greater than 100 µM.
For `CC(=O)Nc1ccc(OCC(O)CN2CCN(S(=O)(=O)c3ccc(NC(C)=O)cc3)CC2)cc1` (stereo not given), the IC50 was > 100 µM (inactive). For the same compound, under setting [1], the IC50 was greater than 100 µM.
The like results for `Cc1ccc(C)c(N2CCN(C(=O)c3ccc(CS(=O)(=O)c4ccccc4C)o3)CC2)c1` were, in that order, > 100 µM (inactive) and greater than 100 µM.
Turning to `C=CCN(C(=O)Cn1c(C(=O)OC)cc2oc(C)cc21)c1ccccc1`, the IC50 is > 100 µM (inactive). This compound came in with an IC50 under setting [1] greater than 100 µM.
The like results for `COc1cc(C(=S)N2CCCC2)cc(OC)c1O` were, in that order, > 100 µM (inactive) and greater than 100 µM.
The like results for `Cc1cccc(N2C(=O)C3C4C=CC(C4)C3C2=O)c1` (stereo not given) were, in that order, > 100 µM (inactive) and greater than 100 µM.
The like results for `CC(=O)Nc1ccc(Oc2cc(C#N)c(C#N)cc2N2CCCCCC2)cc1` were, in that order, > 100 µM (inactive) and greater than 100 µM.
Turning to `Cc1ccc(OCCCC(=O)Nc2ccc(S(=O)(=O)Nc3cc(C)on3)cc2)cc1`, the IC50 was > 100 µM (inactive). The compound also returned a half-inhibitory concentration (IC50) under setting [1] greater than 100 µM.
As to `CN(CCO)c1nc(N)c2c(N)nc3c(c2c1C#N)CC(=O)N3C1CCCC1`, the IC50 was > 100 µM (inactive). For the same compound, under setting [1], the IC50 is greater than 100 µM.
Take `Cc1nn(-c2ccccc2)c2c1C(c1c(C)[nH]c(C#N)c1C)C(C#N)=C(N)O2` (stereo not given): the IC50 was > 100 µM (inactive). Under setting [1], this compound displayed an IC50 greater than 100 µM.
The like results for `Cc1cc(=O)oc2ccc(OCC(=O)N3CCc4ccccc43)cc12` were, in that order, > 100 µM (inactive) and greater than 100 µM.
Take `Cc1ccnc2nc(C(=O)Nc3ccc(N4CCOCC4)cc3)nn12`: the IC50 entry was “inactive”. Under setting [2], this compound came in with an IC50 of 11.1 µM. Under setting [1], the IC50 was greater than 100 µM.
With `COC(=O)c1cc(O)c(OCc2ccccc2)c(O)c1`, the IC50 is > 100 µM (inactive). The IC50 under setting [1] was greater than 100 µM.
The like results for `Cc1cc(C)cc(OCc2nnc(SCC(=O)N3CCN(c4ccccc4)CC3)o2)c1` were, in that order, > 100 µM (inactive) and greater than 100 µM.
The like results for `Cc1nc(N2CCN(C(=O)c3ccco3)CC2)c2c3c(sc2n1)CCCC3` were, in that order, > 100 µM (inactive) and greater than 100 µM.
Turning to `CC1(C)Cc2c(sc3c2c(=N)n(Cc2ccco2)c(=O)n3Cc2ccc(F)cc2)CO1`, the IC50 is > 100 µM (inactive). In addition, the IC50 under setting [1] was greater than 100 µM.
Regarding `CC(C)C(=O)N1CCN(C2=NS(=O)(=O)c3ccccc32)CC1`, the IC50 was > 100 µM (inactive). The compound also yielded an IC50 under setting [1] greater than 100 µM.
The like results for `COc1cc(C)nc(N2CCCC(C(=O)Nc3cccc(Cl)c3C)C2)n1` (stereo not given) were, in that order, > 100 µM (inactive) and greater than 100 µM.
The like results for `O=C(N1CCOCC1)N1c2ccccc2CC(N2CCOCC2)c2ccccc21` (stereo not given) were, in that order, > 100 µM (inactive) and greater than 100 µM.
The like results for `Cc1cc(C)nc(Nc2n[nH]c(COc3ccc(Cl)cc3)n2)n1` were, in that order, > 100 µM (inactive) and greater than 100 µM.
`CC(C)CC[n+]1ccn(-c2nc3ccccc3nc2[N-]S(=O)(=O)c2ccccc2)c1`: the IC50 is > 100 µM (inactive). The compound further yielded an IC50 under setting [1] greater than 100 µM.
The like results for `Fc1ccc2c(c1)nnn2C1CCN(Cc2nnnn2C2CCCCC2)CC1` were, in that order, > 100 µM (inactive) and greater than 100 µM.
In the case of `CCn1c(C)c(/C=N/Nc2nc3ccccc3s2)c2ccccc21`, the IC50 was > 100 µM (inactive). The compound also showed an IC50 under setting [1] greater than 100 µM.
For `Cc1ccc(CN(CC2CCCO2)C(=O)CN2C(=O)C(C(C)C)Oc3ccccc32)o1` (stereo not given), the IC50 entry is “inactive”. The IC50 under setting [2] is greater than 100 µM. This compound returned an IC50 under setting [1] of 14.2 µM.
In the case of `O=C(CCNS(=O)(=O)c1ccc2c(c1)CCC(=O)N2)NCc1cccnc1`, the IC50 was > 100 µM (inactive). Under setting [1], this compound gave a half-inhibitory concentration (IC50) greater than 100 µM.
Take `CCn1c(Cc2ccccc2)nnc1SCC(=O)Nc1nnc(-c2ccccc2)s1`: the IC50 is > 100 µM (inactive). For the same compound, the IC50 under setting [1] was greater than 100 µM.
The like results for `CCC(=O)Nc1c2c(nn1-c1ccc(C)cc1C)CSC2` were, in that order, > 100 µM (inactive) and greater than 100 µM.
The like results for `Cc1cc2c(c(=O)n1CC1CCCO1)C(c1ccco1)C(C#N)=C(N)O2` (stereo not given) were, in that order, > 100 µM (inactive) and greater than 100 µM.
Consider `COC(=O)c1ccccc1NC(=O)CSc1nc(-c2ccco2)cc(C(F)(F)F)n1`, for which the IC50 is > 100 µM (inactive). The IC50 under setting [1] is greater than 100 µM.
The like results for `O=C(CSc1nnc(-c2ccccn2)n1-c1ccccc1)Nc1ccc2c(c1)OCO2` were, in that order, > 100 µM (inactive) and greater than 100 µM.
The like results for `COc1ccc(S(=O)(=O)N2CCCCC2)cc1C(C)C` were, in that order, > 100 µM (inactive) and greater than 100 µM.
Take `COc1ccc(NC(=O)N2CCc3ccccc32)cc1`: the IC50 result is “inactive”. Besides, under setting [2], the IC50 is 6.14 µM. For the same compound, the IC50 under setting [1] is greater than 100 µM.
Turning to `CN(C)S(=O)(=O)c1cccc(NC(=O)COC(=O)c2ccc(Br)o2)c1`, the IC50 was > 100 µM (inactive). For the same compound, the 50% inhibitory concentration (IC50) under setting [1] is greater than 100 µM.
For the compound `N#CC1=C(SCC(=O)c2ccc(Cl)cc2)NC2=C(C(=O)CCC2)C1c1ccco1` (stereo not given), the IC50 is > 100 µM (inactive). The compound also displayed an IC50 under setting [1] greater than 100 µM.
For `O=C(c1c[nH]c2ccc(S(=O)(=O)N3CCOCC3)cc2c1=O)N1CCCC1`, the IC50 was > 100 µM (inactive). Further, the IC50 under setting [1] was greater than 100 µM.
